Results taken from paper PMC4556714, “Drug Development in Conformational Diseases: A Novel Family of Chemical Chaperones that Bind and Stabilise Several Polymorphic Amyloid Structures” (PLoS ONE, 2015).

Tests used:
[1] = molecular target: T1, Bovine serum albumin (BSA, fraction V) (Bos taurus, UniProt P02769); assay: ThT fluorescence, inhibition of BSA amyloid aggregation; assay type: biochemical
T1 construct: gene ALB; mature native serum albumin, 585 residues, fraction V from Roche; heat/acid-induced amyloid aggregation

[2] = molecular target: T1, Bovine serum albumin (BSA, fraction V); assay: ThT fluorescence, BSA fibrillation at […]; assay type: biochemical; conditions: BSA 100 μmol/L, glycine buffer pH 3, NaCl 100 mM, 65°C

T1 sequence (P02769 25-607): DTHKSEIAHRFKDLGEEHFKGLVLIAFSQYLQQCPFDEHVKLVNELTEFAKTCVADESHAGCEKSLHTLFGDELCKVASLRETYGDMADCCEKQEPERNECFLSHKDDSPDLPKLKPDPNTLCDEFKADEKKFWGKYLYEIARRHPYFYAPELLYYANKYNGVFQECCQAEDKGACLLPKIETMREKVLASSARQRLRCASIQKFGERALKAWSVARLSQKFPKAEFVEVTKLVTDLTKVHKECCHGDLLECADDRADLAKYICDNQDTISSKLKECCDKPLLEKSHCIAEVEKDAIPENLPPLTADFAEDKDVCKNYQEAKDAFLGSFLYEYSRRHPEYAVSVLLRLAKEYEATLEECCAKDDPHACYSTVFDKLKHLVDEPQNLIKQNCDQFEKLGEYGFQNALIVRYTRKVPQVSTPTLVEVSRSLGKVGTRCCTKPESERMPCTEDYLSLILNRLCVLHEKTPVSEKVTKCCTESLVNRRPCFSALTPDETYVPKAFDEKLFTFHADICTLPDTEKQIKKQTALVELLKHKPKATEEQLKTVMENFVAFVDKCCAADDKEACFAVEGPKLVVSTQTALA

Row | IC50 [1] | Structure (SMILES) | further results
1 | 6.34 µM | NCCNC(=O)CCC(=O)Nc1cccc2ccccc12 [A, N-(2-aminoethyl)-N'-1-naphthylsuccinamide] | –
2 | 6.37 µM | O=C(O)CCNC(=O)CCC(=O)Nc1cccc2ccccc12 [D, N-[4-(1-naphthylamino)-4-oxobutanoyl]-β-alanine] | –
3 | 5.38 µM | O=C(O)CCCCCNC(=O)CCC(=O)Nc1cccc2ccccc12 [E, 6-{[4-(1-naphthylamino)-4-oxobutanoyl]amino} hexanoic acid] | –

Second part, the molecule before the results:

Row | Structure (SMILES) | IC50 [1] | further results
4 | CSC(=S)NCCNC(=O)CCC(=O)Nc1cccc2ccccc12 [B, methyl (2-{[4-(1-naphthylamino)-4-oxobutanoyl]amino}ethyl) dithiocarbamate] | – | % ThT fluorescence change at 100 μmol/L [2]: chaperones A, C, D, B and E had a strong inhibitory effect on BSA fibrillation
5 | O=C(CCC(=O)Nc1cccc2ccccc12)NCCNC(=O)CCC(=O)Nc1cccc2ccccc12 [F, N3,N3'-ethane-1,2-dyilbis(N1-1-naphthylsuccinamide)] | 40 µM | –
6 | NCCCCNC(=O)CCC(=O)Nc1cccc2ccccc12 [G, N-(4-aminobutyl)-N'-1-naphthylsuccinamide] | – | % ThT fluorescence change at 100 μmol/L ([2]; aggregation enhancer): At the same concentrations, the chaperones F and G increased BSA fibrillation
